# Test results: US9302999B2, “Substituted triazoles as herbicides” (E. I. DU PONT DE NEMOURS AND COMPANY, priority 2012, dated 2016)
# Key:
# Assay type in all cases: in vivo
# [1] = tested on: chickweed (common chickweed, Stellaria media); assay: Test C postemergence: chickweed
# Summary of the method: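 Response values are visual ratings, 0 (no effect) to 100 (complete control), made by comparison with untreated controls 13 to 15 days after postemergence treatment of greenhouse-grown potted plants that were 2 to 18 cm high at spraying.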
# [2] = tested on: blackgrass (Alopecurus myosuroides); assay: Test C pre-/postemergence: blackgrass
# Summary of the method: (§1)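 Visual injury scored 0–100 (100 = complete control) against untreated controls after 13–15 greenhouse days. Surfactant-containing solvent formulations applied either to soil after sowing (loam/sand) or over 1- to 4-leaf plants, 2–18 cm tall.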
# corn (Zea mays) = assay: Test C pre-/postemergence: corn
# Summary of the method: as §1
# [3] = tested on: wheat (Triticum aestivum); assay: Test A pre-/postemergence: wheat; conditions: for Wheat plant response rating: visual rating on 0 to 100 scale (0 no effect, 100 complete control), approximately ten days
# Summary of the method: (§2)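 Seeds were sown in loam/sand blend and sprayed preemergence (directed soil spray) and, simultaneously, postemergence at 2–10 cm, one- to two-leaf stage, using compounds in non-phytotoxic solvent with surfactant. After ~10 days in greenhouse, injury was rated visually versus untreated controls, 0 (no effect) to 100 (complete control).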
# [4] = tested on: lambsquarters (Chenopodium album); assay: Test C pre-/postemergence: lambsquarters
# Summary of the method: as §1
# [5] = tested on: barnyardgrass (Echinochloa crus-galli); assay: Test A pre-/postemergence: barnyardgrass
# Summary of the method: as §2
# [6] = tested on: morningglory (Ipomoea spp.); assay: Test A pre-/postemergence: morningglory; conditions: for Morningglory plant response rating: visual rating on 0 to 100 scale (0 no effect, 100 complete control), approximately ten days
# Summary of the method: as §2
# [7] = tested on: pigweed (Amaranthus retroflexus); assay: Test A pre-/postemergence: pigweed; conditions: for Pigweed plant response rating: visual rating on 0 to 100 scale (0 no effect, 100 complete control), approximately ten days
# Summary of the method: as §2
# [8] = tested on: velvetleaf (Abutilon theophrasti); assay: Test A pre-/postemergence: velvetleaf; conditions: for Velvetleaf plant response rating: visual rating on 0 to 100 scale (0 no effect, 100 complete control), approximately ten days
# Summary of the method: as §2
# [9] = tested on: nutsedge, yellow (yellow nutsedge, Cyperus esculentus); assay: Test C pre-/postemergence: nutsedge, yellow
# Summary of the method: as §1
# [10] = tested on: ryegrass, Italian (Italian ryegrass, Lolium multiflorum); assay: Test C pre-/postemergence: ryegrass, Italian
# Summary of the method: as §1
# [11] = tested on: morningglory (Ipomoea coccinea); assay: Test C pre-/postemergence: morningglory
# Summary of the method: as §1
# [12] = 31 g ai/ha, scale 0 to 100 (0 no effect, 100 complete control)
# [13] = 62 g ai/ha, scale 0 to 100 (0 no effect, 100 complete control)
# [14] = 125 g ai/ha, scale 0 to 100, 0 no effect, 100 complete control
# [15] = Postemergence, 31 g ai/ha, scale 0 to 100 (0 no effect, 100 complete control)
# [16] = Postemergence, 62 g ai/ha, scale 0 to 100 (0 no effect, 100 complete control)
# [17] = Postemergence, 125 g ai/ha, scale 0 to 100, 0 no effect, 100 complete control
# [18] = Postemergence, 250 g ai/ha, scale 0 to 100
# [19] = Preemergence, 31 g ai/ha, scale of 0 to 100, 0 is no effect, 100 is complete control
# [20] = Preemergence, 62 g ai/ha, scale of 0 to 100, 0 is no effect, 100 is complete control
# [21] = Preemergence, 125 g ai/ha, scale 0 to 100, 0 no effect, 100 complete control
# [22] = Preemergence, 250 g ai/ha, scale 0 to 100, 0 no effect, 100 complete control
# [23] = Postemergence, 125 g ai/ha, 0 to 100 scale, 0 is no effect, 100 is complete control
# [24] = Preemergence, 125 g ai/ha, 0 to 100 scale where 0 is no effect and 100 is complete control
# [25] = Preemergence, 500 g ai/ha, 0 to 100 scale (0 no effect, 100 complete control)
# [26] = Postemergence, 500 g ai/ha, visual rating on 0 to 100 scale (0 no effect, 100 complete control), approximately ten days
smiles,measurement,setting,value
CCCc1nn(-c2ccc(F)cc2)nc1Cc1ccnc(C(F)(F)F)c1 [Compound 153],"Plant response rating, Chickweed",[1]; [12],95
same,"Plant response rating, Chickweed",[1]; [13],95
same,"Plant response rating, Chickweed",[1]; [14],95
same,"Plant response rating, Chickweed","[1]; 250 g ai/ha, scale 0 to 100",95
same,"Plant response rating, Blackgrass",[2]; [15],55
same,"Plant response rating, Blackgrass",[2]; [16],60
same,"Plant response rating, Blackgrass",[2]; [17],70
same,"Plant response rating, Blackgrass",[2]; [18],90
same,"Plant response rating, Blackgrass",[2]; [19],90
same,"Plant response rating, Blackgrass",[2]; [20],90
same,"Plant response rating, Blackgrass",[2]; [21],90
same,"Plant response rating, Blackgrass",[2]; [22],90
same,"Plant response rating, Corn",corn (Zea mays); [15],20
same,"Plant response rating, Corn",corn (Zea mays); [16],25
same,"Plant response rating, Corn",corn (Zea mays); [17],45
same,"Plant response rating, Corn",corn (Zea mays); [18],55
same,"Plant response rating, Corn",corn (Zea mays); [19],10
same,"Plant response rating, Corn",corn (Zea mays); [20],25
same,"Plant response rating, Corn",corn (Zea mays); [21],25
same,"Plant response rating, Corn",corn (Zea mays); [22],35
same,"Plant response rating, Wheat",[3]; [23],60
same,Wheat plant response rating,"[3]; Postemergence, 500 g ai/ha",70
same,"Plant response rating, Wheat",[3]; [24],50
same,"Plant response rating, Wheat",[3]; [25],70
same,"Plant response rating, Lambsquarters",[4]; [15],95
same,"Plant response rating, Lambsquarters",[4]; [16],95
same,"Plant response rating, Lambsquarters",[4]; [17],95
same,"Plant response rating, Lambsquarters",[4]; [18],95
same,"Plant response rating, Lambsquarters",[4]; [19],95
same,"Plant response rating, Lambsquarters",[4]; [20],100
same,"Plant response rating, Lambsquarters",[4]; [21],100
same,"Plant response rating, Lambsquarters",[4]; [22],100
same,"Plant response rating, Barnyardgrass",[5]; [23],90
same,Barnyardgrass plant response rating,[5]; [26],90
same,"Plant response rating, Barnyardgrass",[5]; [24],100
same,"Plant response rating, Barnyardgrass",[5]; [25],100
same,"Plant response rating, Morningglory",[6]; [23],90
same,Morningglory plant response rating,"[6]; Postemergence, 500 g ai/ha",100
same,"Plant response rating, Morningglory",[6]; [24],80
same,"Plant response rating, Morningglory",[6]; [25],100
same,"Plant response rating, Pigweed",[7]; [23],100
same,Pigweed plant response rating,"[7]; Postemergence, 500 g ai/ha",100
same,"Plant response rating, Pigweed",[7]; [24],100
same,"Plant response rating, Pigweed",[7]; [25],100
same,"Plant response rating, Velvetleaf",[8]; [23],100
same,Velvetleaf plant response rating,"[8]; Postemergence, 500 g ai/ha",100
same,"Plant response rating, Velvetleaf",[8]; [24],80
same,"Plant response rating, Velvetleaf",[8]; [25],100
same,"Plant response rating, Nutsedge, Yellow",[9]; [15],10
same,"Plant response rating, Nutsedge, Yellow",[9]; [16],10
same,"Plant response rating, Nutsedge, Yellow",[9]; [17],15
same,"Plant response rating, Nutsedge, Yellow",[9]; [18],15
same,"Plant response rating, Nutsedge, Yellow",[9]; [19],0
same,"Plant response rating, Nutsedge, Yellow",[9]; [20],0
same,"Plant response rating, Nutsedge, Yellow",[9]; [21],5
same,"Plant response rating, Ryegrass, Italian",[10]; [15],30
same,"Plant response rating, Ryegrass, Italian",[10]; [16],35
same,"Plant response rating, Ryegrass, Italian",[10]; [17],60
same,"Plant response rating, Ryegrass, Italian",[10]; [18],65
same,"Plant response rating, Ryegrass, Italian",[10]; [19],60
same,"Plant response rating, Ryegrass, Italian",[10]; [20],90
same,"Plant response rating, Ryegrass, Italian",[10]; [21],90
same,"Plant response rating, Ryegrass, Italian",[10]; [22],90
same,"Plant response rating, Morningglory",[11]; [15],40
same,"Plant response rating, Morningglory",[11]; [16],80
same,"Plant response rating, Morningglory",[11]; [17],95
same,"Plant response rating, Morningglory",[11]; [18],95
same,"Plant response rating, Morningglory",[11]; [19],20
same,"Plant response rating, Morningglory",[11]; [20],30
same,"Plant response rating, Morningglory",[11]; [21],50
same,"Plant response rating, Morningglory",[11]; [22],50
Cc1nn(-c2ccc(F)c(F)c2)nc1Oc1ccnc(C(F)(F)F)c1 [Compound 145],"Plant response rating, Chickweed",[1]; [12],75
same,"Plant response rating, Chickweed",[1]; [13],85
same,"Plant response rating, Chickweed",[1]; [14],98
same,"Plant response rating, Chickweed","[1]; 250 g ai/ha, scale 0 to 100",100
same,"Plant response rating, Blackgrass",[2]; [15],10
same,"Plant response rating, Blackgrass",[2]; [16],60
same,"Plant response rating, Blackgrass",[2]; [17],70
same,"Plant response rating, Blackgrass",[2]; [18],70
same,"Plant response rating, Blackgrass",[2]; [19],85
same,"Plant response rating, Blackgrass",[2]; [20],90
same,"Plant response rating, Blackgrass",[2]; [21],90
same,"Plant response rating, Blackgrass",[2]; [22],90
same,"Plant response rating, Corn",corn (Zea mays); [15],35
same,"Plant response rating, Corn",corn (Zea mays); [16],45
same,"Plant response rating, Corn",corn (Zea mays); [18],50
same,"Plant response rating, Corn",corn (Zea mays); [19],0
same,"Plant response rating, Corn",corn (Zea mays); [20],10
same,"Plant response rating, Corn",corn (Zea mays); [21],25
same,"Plant response rating, Corn",corn (Zea mays); [22],60
same,"Plant response rating, Wheat",[3]; [23],20
same,Wheat plant response rating,"[3]; Postemergence, 500 g ai/ha",50
same,"Plant response rating, Wheat",[3]; [24],20
same,"Plant response rating, Wheat",[3]; [25],60
same,"Plant response rating, Lambsquarters",[4]; [15],95
same,"Plant response rating, Lambsquarters",[4]; [16],95
same,"Plant response rating, Lambsquarters",[4]; [17],95
same,"Plant response rating, Lambsquarters",[4]; [18],95
same,"Plant response rating, Lambsquarters",[4]; [19],55
same,"Plant response rating, Lambsquarters",[4]; [20],85
same,"Plant response rating, Lambsquarters",[4]; [21],95
same,"Plant response rating, Lambsquarters",[4]; [22],98
same,Barnyardgrass plant response rating,[5]; [23],80
same,Barnyardgrass plant response rating,[5]; [26],90
same,"Plant response rating, Barnyardgrass",[5]; [24],100
same,"Plant response rating, Barnyardgrass",[5]; [25],100
same,"Plant response rating, Morningglory",[6]; [23],100
same,Morningglory plant response rating,"[6]; Postemergence, 500 g ai/ha",100
same,"Plant response rating, Morningglory",[6]; [24],10
same,"Plant response rating, Morningglory",[6]; [25],60
same,"Plant response rating, Pigweed",[7]; [23],100
same,Pigweed plant response rating,"[7]; Postemergence, 500 g ai/ha",100
same,"Plant response rating, Pigweed",[7]; [24],100
same,"Plant response rating, Pigweed",[7]; [25],100
same,"Plant response rating, Velvetleaf",[8]; [23],100
same,Velvetleaf plant response rating,"[8]; Postemergence, 500 g ai/ha",100
same,"Plant response rating, Velvetleaf",[8]; [24],50
same,"Plant response rating, Velvetleaf",[8]; [25],80
same,"Plant response rating, Nutsedge, Yellow",[9]; [15],5
same,"Plant response rating, Nutsedge, Yellow",[9]; [16],10
same,"Plant response rating, Nutsedge, Yellow",[9]; [17],15
same,"Plant response rating, Nutsedge, Yellow",[9]; [18],15
same,"Plant response rating, Nutsedge, Yellow",[9]; [21],5
same,"Plant response rating, Nutsedge, Yellow",[9]; [22],10
same,"Plant response rating, Ryegrass, Italian",[10]; [15],20
same,"Plant response rating, Ryegrass, Italian",[10]; [16],30
same,"Plant response rating, Ryegrass, Italian",[10]; [17],40
same,"Plant response rating, Ryegrass, Italian",[10]; [18],50
same,"Plant response rating, Ryegrass, Italian",[10]; [19],5
same,"Plant response rating, Ryegrass, Italian",[10]; [20],35
same,"Plant response rating, Ryegrass, Italian",[10]; [21],90
same,"Plant response rating, Ryegrass, Italian",[10]; [22],90
same,"Plant response rating, Morningglory",[11]; [15],90
same,"Plant response rating, Morningglory",[11]; [16],90
same,"Plant response rating, Morningglory",[11]; [17],95
same,"Plant response rating, Morningglory",[11]; [18],98
same,"Plant response rating, Morningglory",[11]; [19],15
same,"Plant response rating, Morningglory",[11]; [20],20
same,"Plant response rating, Morningglory",[11]; [21],70
same,"Plant response rating, Morningglory",[11]; [22],85
